In ChEMBL document CHEMBL3244272, “Folate antagonists. 15. 2,3-Diamino-6-(2-naphthylsulfonyl)quinazoline and related 2,4-diamino-6-[(phenyl and naphthyl)sulfinyl and sulfonyl]quinazolines, a potent new class of antimetabolites with phenomenal antimalarial activity” (J Med Chem, 1979):
≈ marks a conversion by molar mass, not a printed value.

Experiments:
Type in all cases: functional
[1] = test system: Plasmodium berghei; assay: Antimalarial activity against trophozoite-induced Plasmodium berghei infected in sc dosed mouse assessed as minimum curative dose
[2] = test system: Plasmodium berghei; assay: Antimalarial activity against trophozoite-induced Plasmodium berghei infected in mouse assessed as change in mean survival time at 80 mg/kg, sc single dose after 72 hrs of infection; conditions: route subcutaneous
[3] = test system: Plasmodium berghei; assay: Antimalarial activity against trophozoite-induced Plasmodium berghei infected in mouse assessed as change in mean survival time at 40 mg/kg, sc single dose after 72 hrs of infection; conditions: route subcutaneous
[4] = test system: Plasmodium berghei; assay: Antimalarial activity against trophozoite-induced Plasmodium berghei infected in mouse assessed as change in mean survival time at 20 mg/kg, sc single dose after 72 hrs of infection; conditions: route subcutaneous
[5] = test system: Enterococcus faecalis; assay: Antibacterial activity against Streptococcus faecalis MGH-2 assessed as growth inhibition
[6] = test system: Staphylococcus aureus; assay: Antibacterial activity against Staphylococcus aureus UC-76 assessed as growth inhibition
[7] = test system: Staphylococcus aureus; assay: Antibacterial activity against Staphylococcus aureus S18713 assessed as growth inhibition
[8] = test system: Pseudomonas aeruginosa; assay: Antibacterial activity against Pseudomonas aeruginosa 28 assessed as growth inhibition
[9] = test system: Escherichia coli; assay: Antibacterial activity against Escherichia coli Vogel assessed as growth inhibition
[10] = test system: Shigella sonnei; assay: Antibacterial activity against Shigella sonnei C-10 assessed as growth inhibition
[11] = test system: Mycobacterium tuberculosis; assay: Antibacterial activity against Mycobacterium tuberculosis H37Rv assessed as growth inhibition
[12] = test system: Plasmodium berghei; assay: Antimalarial activity against trophozoite-induced Plasmodium berghei infected in mouse assessed as change in mean survival time at 320 mg/kg, sc single dose after 72 hrs of infection; conditions: route subcutaneous
[13] = test system: Plasmodium berghei; assay: Antimalarial activity against trophozoite-induced Plasmodium berghei infected in mouse assessed as change in mean survival time at 160 mg/kg, sc single dose after 72 hrs of infection; conditions: route subcutaneous
[14] = test system: Plasmodium berghei; assay: Antimalarial activity against trophozoite-induced Plasmodium berghei infected in mouse assessed as change in mean survival time at 10 mg/kg, sc single dose after 72 hrs of infection; conditions: route subcutaneous
[15] = test system: Plasmodium berghei; assay: Antimalarial activity against trophozoite-induced Plasmodium berghei infected in mouse assessed as change in mean survival time at 5 mg/kg, sc single dose after 72 hrs of infection; conditions: route subcutaneous
[16] = test system: Plasmodium berghei; assay: Antimalarial activity against trophozoite-induced Plasmodium berghei infected in mouse assessed as change in mean survival time at 2.5 mg/kg, sc single dose after 72 hrs of infection; conditions: route subcutaneous
[17] = test system: Plasmodium berghei; assay: Antimalarial activity against trophozoite-induced Plasmodium berghei infected in mouse assessed as change in mean survival time at 1.25 mg/kg, sc single dose after 72 hrs of infection; conditions: route subcutaneous
[18] = test system: Plasmodium falciparum; assay: Antimalarial activity against chloroquine-sensitive, pyrimethamine-resistant Plasmodium falciparum Malayan Camp CH/Q infected in Aotus monkey assessed as dose required to >50% cures compound treated for 7 days
[19] = test system: Plasmodium falciparum; assay: Antimalarial activity against chloroquine-resistant, pyrimethamine-sensitive Plasmodium falciparum Vietnam Oak Knoll in Aotus monkey assessed as dose required to >50% cures compound treated for 7 days

Row | Compound | MCD [1] [mg/kg] | MST [2] [days] | MST [3] [days] | MST [4] [days] | MIC [5] [µg/mL] | MIC [6] [µg/mL] | MIC [7] [µg/mL] | MIC [8] [µg/mL] | MIC [9] [µg/mL] | MIC [10] [µg/mL] | MIC [11] [µg/mL] | MST [12] [days] | MST [13] [days] | MST [14] [days] | MST [15] [days] | MST [16] [days] | MST [17] [days] | Activity [18] [mg/kg] | Activity [19] [mg/kg]
1 | Nc1nc(N)c2c(Cl)c([S+]([O-])c3ccccc3)ccc2n1 (centres undefined) | 640 | 17.9 | 12.9 | 8.5 |  |  |  |  |  |  |  |  |  |  |  |  |  |  | 
2 | Nc1nc(N)c2c(Cl)c([S+]([O-])c3ccc(F)cc3)ccc2n1 (centres undefined) | 40 | 27.9 | 20.9 | 4.1 | < 0.25 | < 0.25 | 1 (≈ 2.97 µM) | > 25 | < 0.25 | < 0.25 | 2.5 (≈ 7.42 µM) |  |  |  |  |  |  |  | 
3 | Nc1nc(N)c2cc([S+]([O-])c3cccc4ccccc34)ccc2n1 (centres undefined) | 80 | 13.7 | 7.9 | 1.9 | > 25 | > 25 | > 25 | > 25 | > 25 | > 25 |  | 16.4 | 15.2 | 1.1 |  |  |  |  | 
4 | Nc1nc(N)c2c(Cl)c(S(=O)(=O)c3ccc(F)cc3)ccc2n1 | 40 | 26.9 | 13.4 | 9.7 | < 0.25 | 2 (≈ 5.67 µM) | > 25 | > 25 | 10 (≈ 28.3 µM) | > 25 | > 25 |  |  | 9.3 | 4.1 | 0.5 | 0.5 |  | 
5 | Nc1nc(N)c2c(Cl)c(S(=O)(=O)c3ccccc3)ccc2n1 | 640 |  | 22.4 | 11.9 | < 0.25 | 2 (≈ 5.97 µM) | 2 (≈ 5.97 µM) | > 25 | 2 (≈ 5.97 µM) | 2 (≈ 5.97 µM) | > 25 |  |  |  |  |  |  |  | 
6 | Cc1cc(S(=O)(=O)c2ccc3nc(N)nc(N)c3c2)ccc1Br | 80 | 10.5 | 5.9 | 1.5 |  |  |  |  |  |  |  | 18.9 | 17.4 | 0.5 |  |  |  |  | 
7 | Nc1nc(N)c2c(Cl)c(S(=O)(=O)c3cccc(C(F)(F)F)c3)ccc2n1 | 40 | 1.1 | 0.7 | 0.7 | < 0.25 | > 25 | > 25 | > 25 | > 25 | > 25 | > 25 | 4.7 | 3.7 | 0.5 |  |  |  |  | 
8 | Nc1nc(N)c2cc([S+]([O-])c3ccc(Br)cc3)ccc2n1 (centres undefined) | 10 |  | 20.9 | 13.6 | < 0.25 | < 0.25 | < 0.25 | > 25 | 2.5 (≈ 6.88 µM) | > 25 |  |  |  | 10.1 | 6.7 | 3.3 |  |  | 
9 | Nc1nc(N)c2c(Cl)c([S+]([O-])c3cccc(C(F)(F)F)c3)ccc2n1 (centres undefined) | 40 | 1.1 |  | 0.5 |  |  |  |  |  |  |  | 1.5 |  |  |  |  |  |  | 
10 | Nc1nc(N)c2cc([S+]([O-])c3ccc(Cl)c(Cl)c3)ccc2n1 (centres undefined) | 10 |  | 21.9 | 15.9 | < 0.25 | > 25 | > 25 | > 25 | > 25 | > 25 |  |  |  | 8.7 | 7.9 | 4.1 | 1.1 |  | 
11 | COc1cc(Cc2cnc(N)nc2N)cc(OC)c1OC [TRIMETHOPRIM] |  |  |  |  | < 0.25 | < 0.25 | < 0.25 | > 25 | < 0.25 | < 0.25 | > 25 |  |  |  |  |  |  |  | 
12 | Nc1nc(N)c2cc([S+]([O-])c3cccc(-c4ccccc4)c3)ccc2n1 (centres undefined) | 40 | 22.9 | 18.9 | 11.1 | < 0.25 | < 0.25 | < 0.25 | > 25 | > 25 | > 25 |  |  |  | 6.7 | 4.1 | 1.1 | 0.5 |  | 
13 | Nc1nc(N)c2c(Cl)c(S(=O)(=O)c3ccc4ccccc4c3)ccc2n1 | 5 | 7.1 | 4.7 | 0.7 | < 0.25 | > 25 | > 25 | > 25 | > 25 | > 25 | > 25 | 13.3 | 11.5 |  |  |  |  |  | 
14 | Nc1nc(N)c2cc(S(=O)(=O)c3cccc4ccccc34)ccc2n1 | 80 | 5.5 | 3.5 | 2.9 | > 25 | > 25 | > 25 | > 25 | > 25 | > 25 | > 25 | 14.4 | 14.3 | 0.7 |  |  |  |  | 
15 | Nc1nc(N)c2cc(Sc3cccc(C(F)(F)F)c3)ccc2n1 [WR-159412] |  |  |  |  |  |  |  |  |  |  |  |  |  |  |  |  |  | 0.39 | 0.098
16 | Nc1nc(N)c2c(Cl)c([S+]([O-])c3ccccc3Cl)ccc2n1 (centres undefined) | 40 |  |  | 8.6 | < 0.25 | 2 (≈ 5.66 µM) | > 25 | > 25 | > 25 | > 25 | > 25 |  |  |  |  |  |  |  | 
17 | Nc1nc(N)c2c(Cl)c([S+]([O-])c3ccc4ccccc4c3)ccc2n1 (centres undefined) | 5 |  | 23.9 | 9.3 | < 0.25 | > 25 | > 25 | > 25 | > 25 | > 25 | > 25 |  |  |  |  |  |  |  | 
18 | Nc1nc(N)c2cc(S(=O)(=O)c3ccccc3)ccc2n1 | 160 | 12.6 | 12.1 | 7.7 |  |  |  |  |  |  |  |  |  | 5.1 | 0.3 | 0.3 |  |  | 
